Results published in the supplement of paper PMC10307832.

Legend:
Assay in all cases: relative viability (nuclei count vs DMSO), 5 days (fraction); higher = more cells survive
Linsitinib + OSI-027 = compound: C[C@]1(O)C[C@@H](c2nc(-c3ccc4ccc(-c5ccccc5)nc4c3)c3c(N)nccn32)C1 [Linsitinib] + COc1cccc2cc(-c3nc([C@H]4CC[C@H](C(=O)O)CC4)n4ncnc(N)c34)[nH]c12 [OSI-027] (partner 0.5 µM)
Procedure, shortened: (§1)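 The day after seeding in 1536-well plates, lung cancer cell lines were treated by pin tool with a single drug, or with a fixed anchor-drug dose together with five library-drug doses (not always all listed) in √10 steps. After 5 days, a combined fix-and-stain solution (final 0.05% Triton X-100, 1% formaldehyde, 1 ug/ml Hoechst) was added. Nuclei counted on 4× images gave relative viability as treated counts over vehicle counts, reported as the median of duplicate plates.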

Ispinesib + Foretinib = compound: Cc1ccc(C(=O)N(CCCN)[C@@H](c2nc3cc(Cl)ccc3c(=O)n2Cc2ccccc2)C(C)C)cc1 [Ispinesib] + COc1cc2c(Oc3ccc(NC(=O)C4(C(=O)Nc5ccc(F)cc5)CC4)cc3F)ccnc2cc1OCCCN1CCOCC1 [Foretinib] (partner 0.25 µM)
Procedure, shortened: as §1

Ispinesib + Alpelisib = compound: Cc1ccc(C(=O)N(CCCN)[C@@H](c2nc3cc(Cl)ccc3c(=O)n2Cc2ccccc2)C(C)C)cc1 [Ispinesib] + Cc1nc(NC(=O)N2CCC[C@H]2C(N)=O)sc1-c1ccnc(C(C)(C)C(F)(F)F)c1 [Alpelisib] (partner 2 µM)
Procedure, shortened: as §1

Linsitinib + Decitabine = compound: C[C@]1(O)C[C@@H](c2nc(-c3ccc4ccc(-c5ccccc5)nc4c3)c3c(N)nccn32)C1 [Linsitinib] + Nc1ncn([C@H]2C[C@H](O)[C@@H](CO)O2)c(=O)n1 [Decitabine] (partner 2 µM)
Procedure, shortened: as §1

In the case of UMC-11, the relative viability (Linsitinib + OSI-027; first compound 0.01 µM) is reported as 0.468, the relative viability (Linsitinib + OSI-027; first compound 0.03162 µM) is reported as 0.433 and the relative viability (Linsitinib + OSI-027; first compound 0.1 µM) is reported as 0.552. It also gave a relative viability (Linsitinib + OSI-027; first compound 1 µM) of 0.432, a relative viability (Ispinesib + Foretinib; first compound 0.001 µM) of 1.03 and a relative viability (Ispinesib + Foretinib; first compound 0.003162 µM) of 0.995. The relative viability (Ispinesib + Foretinib; first compound 0.01 µM) was 0.889, the relative viability (Ispinesib + Foretinib; first compound 0.03162 µM) was 0.322 and the relative viability (Ispinesib + Foretinib; first compound 0.1 µM) was 0.233. It also gave a relative viability (Ispinesib + Alpelisib; first compound 0.001 µM) of 0.944, a relative viability (Ispinesib + Alpelisib; first compound 0.003162 µM) of 1.09 and a relative viability (Ispinesib + Alpelisib; first compound 0.01 µM) of 0.99. The relative viability (Ispinesib + Alpelisib; first compound 0.03162 µM) was 0.351, the relative viability (Ispinesib + Alpelisib; first compound 0.1 µM) was 0.282 and the relative viability (Linsitinib + Decitabine; first compound 0.01 µM) was 0.627. For the same cell line, the relative viability (Linsitinib + Decitabine; first compound 0.03162 µM) was 0.458, the relative viability (Linsitinib + Decitabine; first compound 0.1 µM) was 0.642 and the relative viability (Linsitinib + Decitabine; first compound 0.3162 µM) was 0.423. For the same cell line, the relative viability (Linsitinib + Decitabine; first compound 1 µM) was 0.527.
